Measured values reported in US20250195624A1, “USE OF SUPEROXIDE DISMUTASE FOR THE TREATMENT AND/OR PREVENTION OF ALLERGIC ASTHMA” (ISOCELL S.A.S., priority 2022, published 2025).

Experiments:
Type in all cases: in vivo, Balb/cj mice
[1] = test system: Th1, Th2 and Th17 lymphocyte; assay: Immune response: lung cells restimulated with whole dust mite extract, flow cytometry; details: lungs of asthmatic mice
Method: (§1) An allergic asthma murine model involving exposure to house dust mites was used. This model comprises a preliminary percutaneous sensitisation challenge phase of Balb/cj mice with a whole house dust mite extract (days 0, 7, 14, and 21), followed by two intranasal stimulations (days 27 and 34) which induced the symptoms of allergy-induced asthma in the test subjects. The efficacy of the Glisodin formulations was evaluated by daily administration to the mice via force feeding of 5 mg of the Glisodin formulation diluted in water, starting at 24 hours after the first intranasal sensitisation challenge and continuing for 5 consecutive days every week for 5 weeks. For comparative purposes, the same protocol was used to evaluate the effect of a combined administration of Glisodin with salbutamol, in which case the salbutamol was administered for 30 seconds at a solution concentration of 5 mg/ml as a nebulized aerosol 1 hour before each sensitisation challenge.
At the end of the treatment protocol, mice lungs were harvested, ground, restimulated with whole dust mite extract and the resulting cell populations analysed using flow cytometry. The results are illustrated in FIG. 10, in which the following cell types were counted: Th1 (CD3+, CD4+, IFNγ+), Th2 (CD3+, CD4+, IL-13+) and Th17 (CD3+, CD4+, IL-17+). […]

[2] = test system: IgE specific to house dust mites and MCP-1; assay: Humoral response: serum HDM-specific IgE by ELISA and MCP-1 production; details: asthmatic mice
Description: An allergic asthma murine model involving exposure to house dust mites was used. This model comprises a preliminary percutaneous sensitisation challenge phase of Balb/cj mice with a whole house dust mite extract (days 0, 7, 14, and 21), followed by two intranasal stimulations (days 27 and 34) which induced the symptoms of allergy-induced asthma in the test subjects. […] For comparative purposes, the same protocol was used to evaluate the effect of a combined administration of Glisodin with salbutamol, in which case the salbutamol was administered for 30 seconds at a solution concentration of 5 mg/ml as a nebulized aerosol 1 hour before each sensitisation challenge. In allergic asthma, once the antigen has been recognised, clonal selection and proliferation taken place, followed by B lymphocyte differentiation into plasmocytes, the formation of the immune complex between IgE and allergens leads to degranulation of the effecting cells and liberation of chemical mediators such as histamine and MCP-1. In order to evaluate the effect of Glisodin treatment, with respect to initiation of an asthma attack, serum levels of IgE were measured by ELISA for IgE specific to house dust mites and measurements made of the levels of production of MCP-1. […]

[3] = test system: cell population from bronchoalveolar lavages (BAL); assay: Inflammatory response: BAL cell population by flow cytometry, HDM allergy induced mice; details: asthmatic mice
Method: as §1
At the end of the study protocol on mice, bronchoalveolar lavage (BAL) were taken and the cell population analysed using flow cytometry. […] ANOVA analysis of the data using the Tukey test was carried out and a confidence interval as indicated on the charts established: *=p<0.05, ** p<0.01 and *** p<0.001, in a population of n-6 to 8 mice per group.

[4] = test system: house dust mite (HDM) allergy induced mice; assay: Respiratory function by flexiVent in response to methacholine, HDM allergy induced mice; details: asthmatic mice, increasing doses of methacholine
Method: as §1
Respiratory function in the mice was analysed using the flexi Vent™ system available from SciReq and the results illustrated in FIGS. 7 and 8. […] Respiratory function was measured using the flexiVent™ system in response to increasing doses of the broncho-constrictor methacholine. […]
The efficacy of Glisodin was also analysed in combination with salbutamol, a B2-adrenergic receptor agonist having a bronchodilatory and anti-inflammatory activity, as used in the treatment of asthma attacks, the results of which are illustrated in FIG. 8. […] In the charts, CTL or control indicates naïve untreated, untreated asthmatic mice (HDM), asthmatic mice having received salbutamol treatment (Salbutamol), asthmatic mice having received salbutamol and wheat Glisodin (Salbu Wheat) or asthmatic mice having received salbutamol with melon Glisodin (Salbu Melon), all measured by flexi Vent in response to increasing doses of the bronchoconstrictor methacholine. […]

[5] = test system: IL-5, IL-13, IL-17; assay: Cytokine response in supernatant of BAL; details: asthmatic mice
Method: as §1
Cytokines are produced in response to antigens present at the surface of foreign bodies or by molecules considered as foreign by the immune. […] In the present case, Th2 inflammatory pathway cytokines, for example, IL-5 and IL-13, and Th17 cytokines, such as IL-17 were measured in the supernatant of BAL of the various mouse groups, and the results illustrated in FIG. 12, with application of ANOVA analysis of the data using the Tukey test leading to a confidence interval as indicated on the charts established: *=p<0.05, ** p<0.01 and *** p<0.001, in a population n=6 to 8 mice per group.

[6] = test system: house dust mite (HDM) allergy induced mice; assay: Tissular degradation: histological analysis of lung samples (eosin and hematoxylin), scoring system; details: double blind scoring
Method: as §1, with “For comparative purposes, the same protocol was used to evaluate the effect of a combined administration of Glisodin with salbutamol, in which case the salbutamol was administered for 30 seconds at a solution concentration of 5 mg/ml as a nebulized aerosol 1 hour before each sensitisation challenge.” left out
In situ evaluation of inflammation, bronchoconstriction and asthma severity were carried out via histological analysis, through staining of lung samples from the various mouse groups with eosin and hematoxylin, with a population of 6 mice per group, the images being shown at a scale of 100 μm, as illustrated in FIG. 13. The degree of tissular degradation was assessed in a double blind protocol by two independent assessors using a scoring system. […]

`CC(C)(C)NCC(O)c1ccc(O)c(CO)c1` (stereo not shown) [salbutamol] was tested, and the Th1 lymphocyte numbers [1] was “reduction”, the “level of MCP-1 produced” value [2] was “reduced” and the “level of HDM-specific IgE” value ([2]; serum) was “able to reduce”. The number of eosinophils ([3]; BAL) was “reduction”, the number of lymphocytes ([3]; BAL) was “reduction” and the “total number of cells in the BAL and lungs” value ([3]; vs untreated asthmatic mice) was “reduction”. The compliance [4] was “significant effect on the improvement”, the elastance [4] was “significant effect on the improvement” and the “resistance of the airways” value [4] was “significant effect on the improvement”. The IL-5 count [5] was “effective in reducing”, the IL-17 count [5] was “tendency to decrease” and the “level of IL-13” value [5] was “neither salbutamol nor the various Glisodin formulations tested were able to reduce”. The “severity of the asthma (degree of tissular degradation, histological score)” value [6] was “reduction”.
